Source: patent US5798350A, “Dopamine receptor ligands” (Allelix Biopharmaceuticals, Inc., priority 1996, dated 1998)

Legend:
[1] = target: T1, human D4 receptor (D4.2 sub-type) (Homo sapiens, UniProt P21917, DEL265-296); experiment: D4 receptor binding, displacement of 3H-spiperone; details: for Ki: human D4 receptor, 3H-spiperone 0.25 nM
T1 construct: expressed in transfected cells; host or cells: HEK 298 (human embryonic kidney) cells, [sic]; homogenate of stably transfected cells
T1 sequence (P21917 with tags, fused parts or gaps DEL265-296): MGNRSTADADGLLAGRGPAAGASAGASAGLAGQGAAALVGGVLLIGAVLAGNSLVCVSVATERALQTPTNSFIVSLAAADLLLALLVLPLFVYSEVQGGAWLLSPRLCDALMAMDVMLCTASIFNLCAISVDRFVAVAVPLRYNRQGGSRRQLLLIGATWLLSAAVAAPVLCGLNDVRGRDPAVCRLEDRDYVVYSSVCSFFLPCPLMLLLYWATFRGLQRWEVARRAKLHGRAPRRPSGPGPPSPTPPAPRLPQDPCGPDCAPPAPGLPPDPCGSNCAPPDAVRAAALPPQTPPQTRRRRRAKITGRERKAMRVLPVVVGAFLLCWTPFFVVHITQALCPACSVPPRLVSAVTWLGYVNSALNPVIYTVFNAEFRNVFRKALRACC
Description: (§1) The potency of the test compound to reduce ^3 H-spiperone binding directly correlated to its binding affinity for the receptor.
The cells were then centrifuged in a Sorval centrifuge for 10 minutes, 5000 rpm (GS3 rotor) and the pellets quickly frozen in liquid nitrogen and stored at -80° C. until used in binding assay. When used in the assay, cells were thawed on ice for 20 minutes and then 10 mL of incubation buffer (50 mM Tris, 1 mM EDTA, 4 mM MgCl2, 5 mM KCl, 1.5 mM CaCl2, 120 mM NaCl, pH7.4) was added. […] Concentration of receptor protein was determined using the Pierce BCA assay.
(§2) Total Spiperone Binding Assay
(§3) The tubes were vortexed and incubated at room temperature for 90 minutes. The binding reaction was stopped by filtering using a Brandell Cell Harvester. The samples were filtered under vacuum over glass fibre filters (Whatman GF/B) presoaked for 2 hours in 0.3% polyethyleneimine (PEI) in 50 mM Tris buffer (pH7.4). The filters were then washed 3 times with 5 mL ice cold 50 mM Tris buffer (pH7.4). Individual filter disks were put in scintillation vials (Biovials, Bechman). Ready Protein Plus liquid scintillant (5 mL, Beckman) was added and the vials counted by liquid scintillation spectrophotometry (Beckman LSC 6500) after equilibrating for three hours at room temperature to determine total binding (BT).
Non-Specific Binding Assay for D4
The tubes were vortexed and incubated at room temperature for 90 minutes at which time the binding reaction was stopped by filtering. The filters were washed and counted using the same procedure as in the total binding assay described above to give the non-specific binding value (NSB).
(§4) Displacement Binding Assay
(§5) The incubation was started by the addition to 12×75 mm polypropylene tubes 500 μl (50 μg protein) membrane homogenate to a solution of 400 μl incubation buffer, 100 μl (0.25 final conc.) ^3 H-spiperone (90Ci/mmol, Amersham, diluted in borosilicate glass vial to) and […] of test compound that was prepared from 1 mM stock dissolved in DMSO and stored at -20° C. in polypropylene cryogenic storage vials until dilution in incubation buffer in borosilicate glass vials. The tubes were vortexed and incubated at room temperature for 90 minutes at which time the binding reaction was stopped by filtering. The filters were washed and counted using the same procedure as in the total binding assay described above to give the displacement binding value (BD).
IC50 was determined from an inhibition response curve, logit-log plot of %B/BO vs concentration of test compound.
(§6) Ki was calculated by the Cheng and Prustoff transformation: […]
(§7) where [L] is the concentration of ^3 H-spiperone used in the assay and KD is the to dissociation constant of ^3 H-spiperone determined independently under the same binding conditions.

[2] = target: T2, human D2 receptor (short isoform) (Homo sapiens, UniProt P14416); experiment: D2 receptor binding, displacement of 3H-spiperone (GH4C1 cells), for D2/D4 selectivity; details: for D2/D4: D4 selectivity, ratio D2/D4
T2 construct: membrane homogenate, 3H-spiperone displacement
T2 sequence (P14416 with tags, fused parts or gaps DEL242-270): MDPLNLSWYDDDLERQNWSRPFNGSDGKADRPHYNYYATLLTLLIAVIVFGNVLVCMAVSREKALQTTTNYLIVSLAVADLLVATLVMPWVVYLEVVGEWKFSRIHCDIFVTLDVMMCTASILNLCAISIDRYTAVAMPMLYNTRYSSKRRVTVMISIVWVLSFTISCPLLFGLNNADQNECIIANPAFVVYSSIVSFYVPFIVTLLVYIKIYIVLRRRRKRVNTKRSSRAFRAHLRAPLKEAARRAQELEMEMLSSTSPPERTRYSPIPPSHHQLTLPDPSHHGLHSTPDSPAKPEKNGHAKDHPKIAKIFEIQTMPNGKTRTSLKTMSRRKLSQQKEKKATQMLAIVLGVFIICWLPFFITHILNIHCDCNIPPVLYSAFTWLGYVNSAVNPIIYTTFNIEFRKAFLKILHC
Description: as §1
GH4 C1 (rat pituitary) cells stably transfected with the human D2 receptor (short isoform) were grown in CO2 independent media in roller bottles (1500 cm^2) for 10 days. 100 μM ZnSO4 was added to the cells (the D2 promoter being zinc inducible). After 16 hours, fresh media was added to allow the cells to recover for 24 hours. The cells were harvested using versene and then centrifuged in a Sorval centrifuge for 10 minutes, at 5000 rpm (GS3 rotor). Pellets were quickly frozen in liquid nitrogen and stored at -80° C. until used in the binding assays. When used in the assay, cells were thawed on ice for 20 minutes. […] 10 mL of incubation buffer was added to the pellets which were then vortexed, resuspended and homogenized with a Kinematica CH-6010 Kriens-LU homogenizer for 15 seconds at setting 7. The receptor protein concentration was determined using the Pierce BCA assay.
as §2
as §3, with “The incubation was started by the addition of 500 μl (50 μg protein) membrane homogenate to a solution of 900 μl incubation buffer and 100 μl (0.25 nM final conc.) ^3 H-spiperone (90 Ci/mmol Amersham diluted in borosilicate glass vial) in 12×75 mm polypropylene tubes. The tubes” for “The tubes”
Non-Specific Binding Assay for D2
This assay employed the same procedures as the non-specific binding assay for D4 with the exception that 2 μM (final conc.) of (-) sulpiride (Research Chemicals Inc.) was used in place of dopamine.
as §4, §5
Specific binding in the absence of test compound (BO) was the difference of total binding (BT) minus non-specific binding (NSB) and similarly specific binding (in the presence of test compound) (B) was the difference of displacement binding (BD) minus non-specific binding (NSB). IC50 was determined from an inhibition response curve, logit-log plot of %B/BO vs concentration of test compound.
as §6, §7

[3] = compared with corresponding 4-methyl piperazine compound

`Clc1ccc2c(c1)C=C(N1CCN(Cc3ccc4c(c3)OCO4)CC1)c1ccccc1S2` [2-chloro-10-(4-piperonyl-1-piperazinyl)dibenzo[b,f]thiepine] was tested, and the Ki [1] was 0.0083 µM, the D2/D4 [2] was 15.9 and the D4 selectivity ([2]; compared with clozapine) was “better D4 selectivity than clozapine”.
With `Clc1ccc2c(c1)Nc1ccccc1N=C2N1CCN(Cc2ccc3c(c2)OCO3)CC1` [3-chloro-11-(4-piperonyl-1-piperazinyl)-5H-dibenzo[b,e][1,4]diazepine] the Ki [1] was 0.0235 µM, the D2/D4 [2] was 24.9 and the D4 selectivity ([2]; compared with clozapine) was “better D4 selectivity than clozapine”.
With `Clc1ccc2c(c1)N=C(N1CCN(Cc3ccc4c(c3)OCO4)CC1)c1ccccc1O2` [8-chloro-11-(4-piperonyl)-1-piperazinyl)dibenz[b,f][1,4]oxazepine] the D4 affinity ([1]; compared with clozapine) was “better D4 affinity than clozapine”, the “D4 affinity and selectivity” value ([1]; compared with clozapine) was “better D4 affinity and selectivity than clozapine” and the “D4 affinity and selectivity” value ([1]; compared with clozapine and the corresponding 4-methyl compound) was “better than clozapine and the corresponding 4-methyl compound”. For the same compound, the “D4 affinity and selectivity” value [1, 3] was “better D4 affinity and selectivity than the corresponding 4-methyl piperazine compound”, the Ki [1] was 0.004 µM and the D2/D4 [2] was 23.8. For the same compound, the D4 selectivity ([2]; compared with clozapine) was “better D4 selectivity than clozapine” and the D4 selectivity [2, 3] was “better D4selectivity than the corresponding 4-methyl piperazine compound”.
For `c1ccc2c(c1)N=C(N1CCN(Cc3ccc4c(c3)OCO4)CC1)c1ccccc1O2` [11-(4-piperonyl)-1-piperazinyl)-dibenz[b,f][1,4]oxazepine], the “D4 affinity and selectivity” value [1, 3] was “better D4 affinity and selectivity than the corresponding 4-methyl piperazine compound”, the Ki [1] was 0.03 µM and the D2/D4 [2] was 32.7. For the same compound, the D4 selectivity ([2]; compared with clozapine) was “better D4 selectivity than clozapine” and the D4 selectivity [2, 3] was “better D4selectivity than the corresponding 4-methyl piperazine compound”.
